In ChEMBL document CHEMBL1681651, “A broad spectrum anticancer nucleoside with selective toxicity against human colon cells in vitro” (2011):

Key:
Format in all cases: functional
SR [1] = experiment: Growth inhibition of human SR cells assessed as cell growth at 0.1 uM after 48 hrs by SRB assay; settings: read-out: Activity
MOLT-4 [2] = experiment: Growth inhibition of human MOLT4 cells after 48 hrs by […] growth inhibition assay; settings: MOLT-4, 48 h
MOLT-4 [3] = experiment: Growth inhibition of human MOLT4 cells assessed as cell growth at 1 uM after 48 hrs by SRB assay; settings: MOLT-4, 48 h, read-out: Activity
HL-60(TB) [4] = experiment: Growth inhibition of human HL-60(TB) cells assessed as cell growth at 1 uM after 48 hrs by SRB assay; settings: HL-60, 48 h, read-out: Activity
[5] = Growth inhibition of human Hs 578T cells assessed as cell growth at 0.1 uM after 48 hrs by SRB assay; settings: read-out: Activity
SR [6] = experiment: Growth inhibition of human SR cells assessed as cell growth at 1 uM after 48 hrs by SRB assay; settings: read-out: Activity
MOLT-4 [7] = experiment: Growth inhibition of human MOLT4 cells assessed as cell growth at 0.1 uM after 48 hrs by SRB assay; settings: MOLT-4, 48 h, read-out: Activity
HL-60(TB) [8] = experiment: Growth inhibition of human HL-60(TB) cells assessed as cell growth at 0.1 uM after 48 hrs by SRB assay; settings: HL-60, 48 h, read-out: Activity
[9] = Growth inhibition of human Hs 578T cells assessed as cell growth at 1 mM after 48 hrs by SRB assay; settings: read-out: Activity
MOLT-4 [10] = experiment: Growth inhibition of human MOLT4 cells assessed as cell growth at 100 uM after 48 hrs by SRB assay; settings: MOLT-4, 48 h, read-out: Activity
MOLT-4 [11] = experiment: Growth inhibition of human MOLT4 cells assessed as cell growth at 1 mM after 48 hrs by SRB assay; settings: MOLT-4, 48 h, read-out: Activity
[12] = Growth inhibition of human Hs 578T cells after 48 hrs by […] growth inhibition assay
SW-620 = experiment: Growth inhibition of human SW620 cells assessed as cell growth at 1 mM after 48 hrs by SRB assay; settings: SW-620, 48 h, read-out: Activity
MDA-MB-468 [13] = experiment: Growth inhibition of human MDA-MB-468 cells assessed as cell growth at 1 mM after 48 hrs by SRB assay; settings: MDA-MB-468, 48 h, read-out: Activity
MDA-MB-468 [14] = experiment: Growth inhibition of human MDA-MB-468 cells assessed as cell growth at 0.1 uM after 48 hrs by SRB assay; settings: MDA-MB-468, 48 h, read-out: Activity
MDA-MB-468 [15] = experiment: Growth inhibition of human MDA-MB-468 cells assessed as cell growth at 1 uM after 48 hrs by SRB assay; settings: MDA-MB-468, 48 h, read-out: Activity
MDA-MB-468 [16] = experiment: Growth inhibition of human MDA-MB-468 cells assessed as cell growth at 100 uM after 48 hrs by SRB assay; settings: MDA-MB-468, 48 h, read-out: Activity
[17] = read-out: LC50 (the source's name)
[18] = read-out: pLC50 (the source's name) (converted)

| SMILES | growth at 0.1 µM (SR [1]) [%] | GI50 (MOLT-4 [2]; read-out: GI50) [µM] | LC50 (MOLT-4 [2]; read-out: LC50) [µM] | TGI (MOLT-4 [2]; read-out: TGI) [µM] | GI50 (MOLT-4 [2]; read-out: pGI50 (converted)) [µM] | LC50 (MOLT-4 [2]; read-out: pLC50 (converted)) [µM] | TGI (MOLT-4 [2]; read-out: pTGI (converted)) [µM] | growth at 1 µM (MOLT-4 [3]) [%] | growth at 1 µM (HL-60(TB) [4]) [%] | growth at 0.1 µM [5] [%] | growth at 1 µM (SR [6]) [%] | growth at 0.1 µM (MOLT-4 [7]) [%] | growth at 0.1 µM (HL-60(TB) [8]) [%] | growth at 1000 µM [9] [%] | growth at 100 µM (MOLT-4 [10]) [%] | growth at 1000 µM (MOLT-4 [11]) [%] | GI50 ([12]; read-out: GI50) [µM] | CC50 [12, 17] [µM] | TGI ([12]; read-out: TGI) [µM] | GI50 ([12]; read-out: pGI50 (converted)) [µM] | other results |
| --- | --- | --- | --- | --- | --- | --- | --- | --- | --- | --- | --- | --- | --- | --- | --- | --- | --- | --- | --- | --- | --- |
| CNC(=O)NC[C@H]1O[C@@H](n2cnc3c(NC(=O)Nc4ccccc4)ncnc32)[C@H](O[Si](C)(C)C(C)(C)C)[C@@H]1CC(=O)N(C)OC | 85 | 2.13 | > 100 | 9.36 | 2.24 | > 100 | 9.33 | 90 | 86 | 98 | 89 | 96 | 95 | 12 | -2 | -5 | 5.79 | > 100 | > 100 | 5.75 | CC50 [12, 18]: > 100 µM; TGI ([12]; read-out: pTGI (converted)): > 100 µM; growth at 1000 µM (SW-620): 50% |
| CCOC(=O)C[C@H]1[C@@H](O[Si](C)(C)C(C)(C)C)[C@H](n2cnc3c(NC(=O)Nc4ccccc4)ncnc32)O[C@@H]1CNC(=O)NC | 82 | 2.39 | > 100 | 23.3 | 2.4 | > 100 | 23.4 | 84 | 110 | 94 | 70 | 93 | 85 | -7 | 8 | -14 | 3.6 | > 100 | 53.6 | 3.63 | CC50 [12, 18]: > 100 µM; TGI ([12]; read-out: pTGI (converted)): 53.7 µM; growth at 1000 µM (SW-620): -33% |
| CNC(=O)NC[C@H]1O[C@@H](n2cnc3c(NC(=O)Nc4ccccc4)ncnc32)[C@H](O[Si](C)(C)C(C)(C)C)[C@@H]1O[Si](C)(C)C(C)(C)C | – | – | – | – | – | – | – | – | – | – | – | – | – | – | – | – | – | – | – | – | growth at 1000 µM (MDA-MB-468 [13]): -35%; growth at 0.1 µM (MDA-MB-468 [14]): 101%; growth at 1 µM (MDA-MB-468 [15]): 104%; growth at 100 µM (MDA-MB-468 [16]): 6% |
